Source: patent US10597388B2, “Pyridazinone herbicides” (FMC CORPORATION, priority 2014, dated 2020)

Experiments:
Type in all cases: in vivo
[1] = tested on: ducksalad (Heteranthera limosa); test: Test B flooded paddy test; conditions: 250 g ai/ha, Flood; visual rating on scale of 0 to 100 where 0 is no effect and 100 is complete control; 13 to 15 d after treatment
Procedure: (§1) Plant species in the flooded paddy test selected from rice (Oryza sativa), sedge, umbrella (small-flower umbrella sedge, Cyperus difformis), ducksalad (Heteranthera limosa), and barnyardgrass (Echinochloa crus-galli) were grown to the 2-leaf stage for testing. At time of treatment, test pots were flooded to 3 cm above the soil surface, treated by application of test compounds directly to the paddy water, and then maintained at that water depth for the duration of the test. Treated plants and controls were maintained in a greenhouse for 13 to 15 d, after which time all species were compared to controls and visually evaluated. Plant response ratings, summarized in Table B, are based on a scale of 0 to 100 where 0 is no effect and 100 is complete control. A dash (-) response means no test result.

[2] = tested on: barnyardgrass (Echinochloa crus-galli); test: Test B flooded paddy test; conditions: 250 g ai/ha, Flood; visual rating on scale of 0 to 100 where 0 is no effect and 100 is complete control; 13 to 15 d after treatment
Procedure: as §1

[3] = tested on: sedge, umbrella (small-flower umbrella sedge, Cyperus difformis); test: Test B flooded paddy test; conditions: 250 g ai/ha, Flood; visual rating on scale of 0 to 100 where 0 is no effect and 100 is complete control; 13 to 15 d after treatment
Procedure: as §1

rice (Oryza sativa) = test: Test B flooded paddy test; conditions: 250 g ai/ha, Flood; visual rating on scale of 0 to 100 where 0 is no effect and 100 is complete control; 13 to 15 d after treatment
Procedure: as §1

[4] = tested on: blackgrass (Alopecurus myosuroides); test: Test A greenhouse herbicide test, postemergence; conditions: for Plant response rating, Blackgrass: 125 g ai/ha, visual rating after approx. 10 d, 0 to 100 scale (0 no effect, 100 complete control); for Blackgrass plant response rating: 500 g ai/ha, 0 to 100 scale, 0 is no effect, 100 is complete control
Method in brief: (§2)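 Plants grown in loam soil/sand blend pots were treated postemergence at 2 to 10 cm height, one- to two-leaf stage, with formulated test chemicals. After approximately 10 d in a greenhouse, injury was rated visually against untreated controls on a 0 to 100 scale (0 no effect, 100 complete control).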

[5] = tested on: galium (catchweed bedstraw, Galium aparine); test: Test A greenhouse herbicide test, postemergence; conditions: for Plant response rating, Galium: 125 g ai/ha, visual rating after approx. 10 d, 0 to 100 scale (0 no effect, 100 complete control); for Galium plant response rating: 500 g ai/ha, 0 to 100 scale, 0 is no effect, 100 is complete control
Method in brief: as §2

kochia (Kochia scoparia) = test: Test A greenhouse herbicide test, pre- and postemergence
Description: (§3) Seeds of plant species selected from barnyardgrass (Echinochloa crus-galli), kochia (Kochia scoparia), ragweed (common ragweed, Ambrosia elatior), ryegrass, Italian (Italian ryegrass, Lolium multiflorum), crabgrass, large (large crabgrass, Digitaria sanguinalis), foxtail, giant (giant foxtail, Setaria faberii), momingglory (Ipomoea spp.), pigweed (Amaranthus retroflexus), velvetleaf (Abutilon theophrasti), wheat (Triticum aestivum), and corn (Zea mays) were planted into a blend of loam soil and sand and treated preemergence with a directed soil spray using test chemicals formulated in a non-phytotoxic solvent mixture which included a surfactant.
(§4) At the same time, plants selected from these crop and weed species and also blackgrass (Alopecurus myosuroides), and galium (catchweed bedstraw, Galium aparine) were planted in pots containing the same blend of loam soil and sand and treated with postemergence applications of test chemicals formulated in the same manner. Plants ranged in height from 2 to 10 cm and were in the one- to two-leaf stage for the postemergence treatment. Treated plants and untreated controls were maintained in a greenhouse for approximately 10 d, after which time all treated plants were compared to untreated controls and visually evaluated for injury. Plant response ratings, summarized in Table A, are based on a 0 to 100 scale where 0 is no effect and 100 is complete control. A dash (-) response means no test result.

[6] = tested on: foxtail, giant (giant foxtail, Setaria faberii); test: as above
Description: as §3, §4

corn (Zea mays) = test: as above; conditions: Postemergence; for Plant response rating, Corn: 125 g ai/ha, visual rating after approx. 10 d, 0 to 100 scale (0 no effect, 100 complete control); for Corn plant response rating: 500 g ai/ha, 0 to 100 scale, 0 is no effect, 100 is complete control
Description: as §3, §4

[7] = tested on: pigweed (Amaranthus retroflexus); test: as above
Description: as §3, §4

[8] = tested on: ryegrass, Italian (Italian ryegrass, Lolium multiflorum); test: as above
Description: as §3, §4

[9] = tested on: wheat (Triticum aestivum); test: as above; conditions: Postemergence; for Plant response rating, Wheat: 125 g ai/ha, 0 to 100 scale where 0 is no effect and 100 is complete control; for Wheat plant response rating: 500 g ai/ha, 0 to 100 scale, 0 is no effect, 100 is complete control
Description: as §3, §4

[10] = tested on: barnyardgrass (Echinochloa crus-galli); test: as above
Description: as §3, §4

[11] = tested on: ragweed (common ragweed, Ambrosia elatior); test: as above
Description: as §3, §4

[12] = Postemergence, 125 g ai/ha, visual rating after approx. 10 d, 0 to 100 scale (0 no effect, 100 complete control)
[13] = Postemergence, 500 g ai/ha, 0 to 100 scale, 0 is no effect, 100 is complete control
[14] = Preemergence, 125 g ai/ha, 0 to 100 scale where 0 is no effect and 100 is complete control
[15] = Preemergence, 500 g ai/ha, 0 to 100 scale, 0 no effect, 100 complete control
[16] = Postemergence, 125 g ai/ha, 0 to 100 scale where 0 is no effect and 100 is complete control

Cn1ncc(O)c(-c2ccc(F)c3ccccc23)c1=O [Compound 24]
10: Plant response rating, Foxtail, Giant [6, 12]
70: Plant response rating, Kochia (kochia (Kochia scoparia); [12]) | Plant response rating, Pigweed [7, 12] | Pigweed plant response rating [7, 14] | Plant response rating, Ryegrass, Italian [8, 16] | Wheat plant response rating [9]
80: Plant response rating, Galium [5] | Kochia plant response rating (kochia (Kochia scoparia); [13]) | Plant response rating, Foxtail, Giant [6, 15] | Ryegrass, Italian plant response rating [8, 14] | Plant response rating, Ryegrass, Italian [8, 15]
60: Foxtail, Giant plant response rating [6, 13] | Foxtail, Giant plant response rating [6, 14] | Plant response rating, Barnyardgrass [10, 15] | Ragweed plant response rating [11, 13]
100: Galium plant response rating [5]
90: Pigweed plant response rating [7, 13] | Plant response rating, Pigweed [7, 15] | Ryegrass, Italian plant response rating [8, 13]
30: Plant response rating, Blackgrass [4] | Kochia plant response rating (kochia (Kochia scoparia); [14]) | Plant response rating, Wheat [9] | Barnyardgrass plant response rating [10, 14] | Plant response rating, Ragweed [11, 12]
40: Plant response rating, Barnyardgrass [10, 12]
50: Blackgrass plant response rating [4] | Plant response rating, Kochia (kochia (Kochia scoparia); [15]) | Barnyardgrass plant response rating [10, 13]
0: Plant response rating, Ducksalad [1] | Plant response rating, Barnyardgrass [2] | Plant response rating, Sedge, Umbrella [3] | Plant response rating, Rice (rice (Oryza sativa)) | Plant response rating, Corn (corn (Zea mays)) | Corn plant response rating (corn (Zea mays)) | Ragweed plant response rating [11, 14] | Plant response rating, Ragweed [11, 15]

Cc1ccc2c(c1)c(-c1c(O)c(C)nn(C)c1=O)c(C)n2C [Compound 31]
40: Pigweed plant response rating [7, 13]
0: Plant response rating, Ducksalad [1] | Plant response rating, Barnyardgrass [2] | Plant response rating, Sedge, Umbrella [3] | Plant response rating, Rice (rice (Oryza sativa)) | Plant response rating, Blackgrass [4] | Plant response rating, Kochia (kochia (Kochia scoparia); [12]) | Kochia plant response rating (kochia (Kochia scoparia); [13]) | Kochia plant response rating (kochia (Kochia scoparia); [14]) | Plant response rating, Kochia (kochia (Kochia scoparia); [15]) | Plant response rating, Foxtail, Giant [6, 12] | Foxtail, Giant plant response rating [6, 14] | Plant response rating, Foxtail, Giant [6, 15] | Plant response rating, Corn (corn (Zea mays)) | Corn plant response rating (corn (Zea mays)) | Pigweed plant response rating [7, 14] | Plant response rating, Pigweed [7, 15] | Plant response rating, Ryegrass, Italian [8, 16] | Ryegrass, Italian plant response rating [8, 13] | Ryegrass, Italian plant response rating [8, 14] | Plant response rating, Ryegrass, Italian [8, 15] | Plant response rating, Wheat [9] | Wheat plant response rating [9] | Plant response rating, Barnyardgrass [10, 12] | Barnyardgrass plant response rating [10, 14] | Plant response rating, Barnyardgrass [10, 15] | Plant response rating, Ragweed [11, 12] | Ragweed plant response rating [11, 14]
10: Foxtail, Giant plant response rating [6, 13] | Barnyardgrass plant response rating [10, 13]
20: Blackgrass plant response rating [4] | Plant response rating, Galium [5] | Plant response rating, Pigweed [7, 12] | Ragweed plant response rating [11, 13]
30: Plant response rating, Ragweed [11, 15]
70: Galium plant response rating [5]
